Where “and” joins values, the source holds several entries; their conditions need not be identical. Equal entries are not always repeated.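 Each compound was tested at five concentrations against cells in 96-well plates for 48 hours. At the GI50, growth is halved. At the TGI there is no net growth.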

In PubChem BioAssay (NCI) one finds TGI and GI50 data, which are given here for 17 molecules.

Some test systems named below: SK-MEL-5 melanoma; HOP-62 NSCLC; EKVX NSCLC; SNB-19 CNS; UACC-62 melanoma; OVCAR-4 ovarian; RXF 393 renal; MCF7 breast; MDA-MB-231 breast.
Common to all, as to assay: NCI tumour cell line growth inhibition, 48 h

For `CCC(C)(O)c1cn(-c2ccc(Cl)cc2)nn1` (stereo unspecified), the TGI in the assay with SK-MEL-5 melanoma, in the assay on HOP-62 NSCLC, with EKVX NSCLC, in the assay on SNB-19 CNS, with UACC-62 melanoma and with OVCAR-4 ovarian was > 100 µM each time. For the same molecule, in the assay with RXF 393 renal, the TGI was > 100 µM.
As to `O=C(O)c1c2c(cc3c(=O)c4ccccc4[nH]c13)CCCC2`, the TGI in the assay with HOP-62 NSCLC, in the assay with EKVX NSCLC, in the assay on SNB-19 CNS, in the assay on UACC-62 melanoma and with RXF 393 renal was > 100 µM throughout.
With `O=C1C(Cl)=C(Cl)C(=O)N1c1ccc(Cl)c(Cl)c1Cl`, the TGI in the assay with SK-MEL-5 melanoma, in the assay with HOP-62 NSCLC, in the assay on EKVX NSCLC, with SNB-19 CNS, in the assay on UACC-62 melanoma and with OVCAR-4 ovarian was > 100 µM each time.
With `COC(=O)/C(C#N)=C1\CCC(OC)N1C` (stereo unspecified), the TGI in the assay on SK-MEL-5 melanoma, with HOP-62 NSCLC, in the assay on EKVX NSCLC, in the assay on SNB-19 CNS, in the assay with UACC-62 melanoma and in the assay on OVCAR-4 ovarian was > 100 µM throughout. Also, the TGI with RXF 393 renal is > 100 µM.
On to `Cc1ccc(N2C(=O)/C(=C/c3ccc(N(CCC#N)CCC#N)cc3)N=C2COc2ccc(Cl)cc2Cl)cc1`, for which the TGI in the assay on SK-MEL-5 melanoma, in the assay on HOP-62 NSCLC, in the assay with EKVX NSCLC, in the assay with SNB-19 CNS, in the assay with UACC-62 melanoma and in the assay with OVCAR-4 ovarian was > 100 µM in each case. The TGI in the assay with RXF 393 renal is > 100 µM.
In the case of `COc1cc2c(cc1OC)C(C(CBr)CBr)N(C1CCCC1)CC2` (stereo unspecified), the TGI in the assay with SK-MEL-5 melanoma, in the assay with HOP-62 NSCLC, in the assay with EKVX NSCLC, with SNB-19 CNS, in the assay with UACC-62 melanoma and in the assay on OVCAR-4 ovarian was > 100 µM each time. In addition, the TGI in the assay on RXF 393 renal is > 100 µM.
`CC(/C=C/C(=O)c1sc(C(N)=S)nc1C)=C\c1ccccc1`: the TGI is > 100 µM in the assay with SK-MEL-5 melanoma; > 100 µM in the assay on HOP-62 NSCLC; > 100 µM in the assay with EKVX NSCLC; 31.2 µM in the assay with SNB-19 CNS; > 100 µM in the assay with UACC-62 melanoma; > 100 µM in the assay on OVCAR-4 ovarian. In addition, the TGI with RXF 393 renal is > 100 µM.
For the molecule `COc1cc(Cc2c(C)cc(OC)c3[nH]c4ccccc4c23)cc2c1[nH]c1ccccc12`, the results for the GI50 in the assay with SK-MEL-5 melanoma, in the assay on HOP-62 NSCLC and with UACC-62 melanoma were 3.94 µM, 5.49 µM and 5.61 µM, respectively. For the same molecule, the TGI is 7.93 µM in the assay on SK-MEL-5 melanoma, 11 µM in the assay with HOP-62 NSCLC, > 25 µM in the assay on SNB-19 CNS and > 25 µM in the assay on UACC-62 melanoma.
Take `Cc1ccccc1-n1c(=S)[nH]c2c(sc(=O)n2-c2ccccc2C)c1=O`: the TGI in the assay with SK-MEL-5 melanoma, in the assay with HOP-62 NSCLC, in the assay on EKVX NSCLC, with SNB-19 CNS, in the assay on UACC-62 melanoma and with OVCAR-4 ovarian was > 100 µM in each case. In addition, in the assay on RXF 393 renal, the TGI was > 100 µM.
Consider `COC(=O)c1onc(C2OC(C)(C)OC2C(O)COC(c2ccccc2)(c2ccccc2)c2ccccc2)c1C(=O)OC` (stereo unspecified), for which the TGI with MCF7 breast, in the assay on SK-MEL-5 melanoma, in the assay on HOP-62 NSCLC, in the assay with EKVX NSCLC, with MDA-MB-231 breast and in the assay with SNB-19 CNS was > 100 µM each time. Moreover, the TGI in the assay on UACC-62 melanoma, in the assay with OVCAR-4 ovarian and in the assay on RXF 393 renal was > 100 µM each time.
With `Cc1ccc2oc(=O)c3c(O)c4cccc(OC5OC(C)C6O[C@@H](c7ccccc7)OC6C5OC5OC(C)C(O)C(O)C5O)c4c4oc(=O)c1c2c34` (stereo partly specified), the TGI was 2.48 µM in the assay on MCF7 breast; 1.09 µM and 0.7 µM with SK-MEL-5 melanoma; 1.6 µM and 0.734 µM in the assay on HOP-62 NSCLC; 4.09 µM and 2.55 µM in the assay on EKVX NSCLC; 1.35 µM in the assay with MDA-MB-231 breast; 0.444 µM and 0.432 µM with UACC-62 melanoma. The TGI with OVCAR-4 ovarian turned out to be 3.53 µM; in the assay on RXF 393 renal, 0.763 µM. Moreover, the GI50 with SK-MEL-5 melanoma was 0.114 µM; with HOP-62 NSCLC, 0.105 µM; in the assay with EKVX NSCLC it was 0.519 µM; in the assay on SNB-19 CNS, 0.0266 µM.
As to `O=C1OC(=O)C23CSCC12C1C=CC3O1` (stereo unspecified), the TGI in the assay with SK-MEL-5 melanoma, in the assay with HOP-62 NSCLC, in the assay with EKVX NSCLC, in the assay on SNB-19 CNS, in the assay on UACC-62 melanoma and in the assay with RXF 393 renal was > 100 µM throughout.
As to `COc1ccc(N2C(=O)[C@@H](N=[N+]=[N-])[C@@H]2[C@H]2COC(C)(C)O2)cc1`, the TGI with SK-MEL-5 melanoma, with HOP-62 NSCLC, in the assay on EKVX NSCLC, with SNB-19 CNS, in the assay on UACC-62 melanoma and in the assay with OVCAR-4 ovarian was > 100 µM in each case. Moreover, the TGI in the assay with RXF 393 renal was > 100 µM.
With `CCC1CCCCN1CC(C(C)=O)C(c1ccccc1)c1c(O)c2ccccc2oc1=O` (stereo unspecified), the TGI in the assay with SK-MEL-5 melanoma, with HOP-62 NSCLC, in the assay with EKVX NSCLC, in the assay on SNB-19 CNS, in the assay with UACC-62 melanoma and in the assay on OVCAR-4 ovarian was > 100 µM each time. Besides, the TGI in the assay on RXF 393 renal was > 100 µM.
Regarding `O=[N+]([O-])c1cc(/C=N\NS(=O)(=O)c2ccc(Cl)cc2)c(O)c([N+](=O)[O-])c1`, the TGI with SK-MEL-5 melanoma is 66.6 µM; with HOP-62 NSCLC it was > 100 µM; in the assay on EKVX NSCLC, > 100 µM; in the assay with SNB-19 CNS it was 79.5 µM; in the assay with UACC-62 melanoma it was > 100 µM; in the assay on OVCAR-4 ovarian, > 100 µM. Also, the TGI with RXF 393 renal stood at 91.9 µM.
`CCOC(=O)[C@@]12C(C)=CC(=O)O[C@]1(C)C1C(=O)NC(=O)C12` (stereo partly specified): the TGI in the assay with SK-MEL-5 melanoma, with HOP-62 NSCLC, with EKVX NSCLC, with SNB-19 CNS, in the assay on UACC-62 melanoma and in the assay with OVCAR-4 ovarian was > 100 µM each time. In the assay on RXF 393 renal, the TGI is > 100 µM.
As for `O=C(c1ccccc1)c1nnn(Cc2ccccc2Cn2nnc(C(=O)c3ccccc3)c2C(=O)c2ccccc2)c1C(=O)c1ccccc1`, the TGI in the assay with SK-MEL-5 melanoma, in the assay with HOP-62 NSCLC, in the assay on EKVX NSCLC, with SNB-19 CNS, with UACC-62 melanoma and in the assay with OVCAR-4 ovarian was > 100 µM throughout.
